Reference: ChEMBL document CHEMBL1126465, “Synthesis and pharmacological evaluation of nonacyclic and trisdecacyclic pyrazines related to cephalostatin” (1992)
Converted amounts (≈) assume the structure as drawn.

How the values were obtained:
HT-29 [1] = test: In vitro cytotoxicity against human colon adenocarcinoma cell line HT-29; format: functional; conditions: read-out: ED50 (the source's name)
MCF7 [2] = test: In vitro cytotoxicity against human breast carcinoma cell line MCF-7; format: functional; conditions: read-out: ED50 (the source's name)
A549 [3] = test: In vitro cytotoxicity against human lung carcinoma cell line A-549; format: functional; conditions: read-out: ED50 (the source's name)
SK-MEL-5 [4] = test: In vitro cytotoxicity against human melanoma, metastatic to auxiliary node (SK-MEL-5); format: functional; conditions: read-out: ED50 (the source's name)
Malme-3M [5] = test: In vitro cytotoxicity against human melanoma, metastatic to lung using MTT assay (MALME-3M); format: functional; conditions: read-out: ED50 (the source's name)
Malme-3M [6] = test: In vitro cytotoxicity against human melanoma, metastatic to lung using MTT assay (MALME-3M) at 6.8*10e-5M; format: functional
SK-MEL-5 [7] = test: In vitro cytotoxicity against human melanoma, metastatic to auxiliary node (SK-MEL-5) at 5.1*10e-5M; format: functional; conditions: SK-MEL-5, read-out: ED50
A549 [8] = test: In vitro cytotoxicity against human lung carcinoma cell line A-549 at 3.6*10e-5 M; format: functional; conditions: A549, read-out: ED50
MCF7 [9] = test: In vitro cytotoxicity against human breast carcinoma cell line MCF-7 at 4.4*10e-5M; format: functional; conditions: MCF7, read-out: ED50
HT-29 [10] = test: In vitro cytotoxicity against human colon adenocarcinoma cell line HT-29 at 5.7*10e-5M; format: functional; conditions: HT-29, read-out: ED50
SK-MEL-5 [11] = test: In vitro cytotoxicity against human melanoma, metastatic to auxiliary node (SK-MEL-5) at 3.2*10e-5M; format: functional; conditions: read-out: ED50 (the source's name)
HT-29 [12] = test: In vitro cytotoxicity against human colon adenocarcinoma cell line HT-29 at 3.0*10e-5 M; format: functional; conditions: read-out: ED50 (the source's name)
Malme-3M [13] = test: In vitro cytotoxicity against human melanoma, metastatic to lung using MTT assay (MALME-3M) at 5.5*10e-5M; format: functional; conditions: read-out: ED50 (the source's name)
NRK [14] = test: In vitro cytotoxicity expressed as % cell kill against rat transformed cell line H/1/2-NRK at a dose of 33 uM; format: functional
Mus musculus [15] = test: Percent inhibition was determined against K/1-NRK tumor at a dose of 75 mg/kg/day in mice; format: functional
A549 [16] = test: In vitro cytotoxicity against human lung carcinoma cell line A-549 at 6.1*10e-5 M; format: functional; conditions: read-out: ED50 (the source's name)
NRK [17] = test: In vitro cytotoxicity expressed as % cell kill against rat transformed cell line H/1/2-NRK at a dose of 3.3 uM; format: functional
Mus musculus [18] = organism: Mus musculus; test: Maximum tolerated dose (MTD) was reported; format: functional
Mus musculus [19] = test: Percent inhibition was determined against H/1/2-NRK tumor at a dose of 150 mg/kg/day in mice; format: functional
NRK [20] = test: In vitro cytotoxicity expressed as % cell kill against rat transformed cell line K/1-NRK at a dose of 3.3 uM; format: functional
Mus musculus [21] = test: Percent inhibition was determined against K/1-NRK tumor at a dose of 150 mg/kg/day in mice; format: functional
NRK [22] = test: In vitro cytotoxicity expressed as % cell kill against ras transformed cell line K/1-NRK at a dose of 33 uM; format: functional, Rattus norvegicus
SK-MEL-5 [23] = test: In vitro cytotoxicity against human melanoma, metastatic to auxiliary node (SK-MEL-5) at 6.3*10e-5M; format: functional; conditions: read-out: ED50 (the source's name)
NRKE [24] = test: In vitro cytotoxicity expressed as % cell kill against normal rat kidney epithelial cell (NRKE) at a dose of 3.3 uM; format: functional
HT-29 [25] = test: In vitro cytotoxicity against human colon adenocarcinoma cell line HT-29 at 1.2*10e-5M; format: functional; conditions: read-out: ED50 (the source's name)
MCF7 [26] = test: In vitro cytotoxicity against human breast carcinoma cell line MCF-7 at 4.9*10e-5M; format: functional; conditions: read-out: ED50 (the source's name)
NRKE [27] = test: In vitro cytotoxicity expressed as % cell kill against normal rat kidney epithelial cell (NRKE) at a dose of 33 uM; format: functional
MCF7 [28] = test: In vitro cytotoxicity against human breast carcinoma cell line MCF-7 at 8.1*10e-5M; format: functional; conditions: read-out: ED50 (the source's name)
A549 [29] = test: In vitro cytotoxicity against human lung carcinoma cell line A-549 at 7.4*10e-5 M; format: functional; conditions: read-out: ED50 (the source's name)
HT-29 [30] = test: In vitro cytotoxicity against human colon adenocarcinoma cell line HT-29 at 1.6*10e-5M; format: functional; conditions: read-out: ED50 (the source's name)
Malme-3M [31] = test: In vitro cytotoxicity against human melanoma, metastatic to lung using MTT assay (MALME-3M) at 4.7*10e-5M; format: functional; conditions: read-out: ED50 (the source's name)
MCF7 [32] = test: In vitro cytotoxicity against human breast carcinoma cell line MCF-7 at 5.6*10e-5M; format: functional; conditions: read-out: ED50 (the source's name)
A549 [33] = test: In vitro cytotoxicity against human lung carcinoma cell line A-549 at 5.0*10e-5M; format: functional; conditions: read-out: ED50 (the source's name)
SK-MEL-5 [34] = test: In vitro cytotoxicity against human melanoma, metastatic to auxiliary node (SK-MEL-5) at 2.6*10e-5M; format: functional; conditions: read-out: ED50 (the source's name)
HT-29 [35] = test: In vitro cytotoxicity against human colon adenocarcinoma cell line HT-29 at 5.9*10e-5M; format: functional; conditions: read-out: ED50 (the source's name)
P388 = test: In vitro cytotoxicity against P388 cell line; 10e-7-10e-9 ug/mL; format: functional; conditions: Mus musculus, read-out: ED50 (the source's name)

## CCCCCCCC[C@H]1CC[C@@]2(C)C3CC[C@@]4(C)Cc5nc6c(nc5C[C@]4(C)[C@@]3(C)CC[C@]12C)C[C@]1(C)CCC2[C@](C)(CC[C@]3(C)[C@@H](CCCCCCCC)CC[C@@]23C)[C@@]1(C)C6 (stereo partly specified)
HT-29 [1]
  EC50: > 100 µg/mL
MCF7 [2]
  EC50: > 100 µg/mL
A549 [3]
  EC50: > 100 µg/mL
SK-MEL-5 [4]
  EC50: > 100 µg/mL
Malme-3M [5]
  EC50: > 100 µg/mL

## C[C@@]12CCC3[C@](C)(CC[C@]4(C)[C@@H](O)CC[C@@]34C)[C@@]1(C)Cc1nc3c(nc1C2)C(N=[N+]=[N-])[C@@]1(C)[C@@H](CCC2[C@]1(C)CC[C@]1(C)[C@@H](O)CC[C@@]21C)C3 (stereo partly specified)
Malme-3M [6]; read-out: ED50
  EC50: 42 µg/mL (≈ 61.4 µM)
SK-MEL-5 [7]
  EC50: 31 µg/mL (≈ 45.3 µM)
A549 [8]
  EC50: 22 µg/mL (≈ 32.2 µM)
MCF7 [9]
  EC50: 27 µg/mL (≈ 39.5 µM)
HT-29 [10]
  EC50: 35 µg/mL (≈ 51.2 µM)

## C[C@H]1CC[C@@]2(OC1)O[C@H]1C[C@@]3(C)C4CC[C@@]5(C)Cc6nc7c(nc6C[C@]5(C)C4=C(O)C(=O)[C@]3(C)[C@H]1[C@@H]2C)C[C@]1(C)CCC2C(=C(O)C(=O)[C@]3(C)[C@@H]4[C@H](C[C@@]23C)O[C@]2(CC[C@H](C)CO2)[C@H]4C)[C@@]1(C)C7 (stereo partly specified)
MCF7 [2]
  EC50: > 100 µg/mL
SK-MEL-5 [11]
  EC50: 28 µg/mL (≈ 30 µM)
A549 [3]
  EC50: > 100 µg/mL
HT-29 [12]
  EC50: 26 µg/mL (≈ 27.9 µM)
Malme-3M [13]
  EC50: 53 µg/mL (≈ 56.8 µM)

## C[C@@]12CCC3[C@](C)(CC[C@]4(C)[C@@H](O)CC[C@@]34C)[C@@]1(C)Cc1nc3c(nc1C2)C[C@@]1(C)[C@@](C)(CCC2[C@]1(C)CC[C@]1(C)[C@@H](O)CC[C@@]21C)C3 (stereo partly specified)
NRK [14]
  Cell kill: 100%
Malme-3M [6]; read-out: ED50 (the source's name)
  EC50: 39 µg/mL (≈ 59.4 µM)
Mus musculus [15]
  inhibition in vivo at 75 mg/kg/day: 28%
A549 [16]
  EC50: 35 µg/mL (≈ 53.3 µM)
NRK [17]
  Cell kill: 100%
Mus musculus [18]
  MTD: 150 mg/kg/day
Mus musculus [19]
  inhibition in vivo at 150 mg/kg/day: 59%
NRK [20]
  Cell kill: 100%
Mus musculus [21]
  inhibition in vivo at 150 mg/kg/day: 51%
NRK [22]
  Cell kill: 100%
SK-MEL-5 [23]
  EC50: 36 µg/mL (≈ 54.8 µM)
NRKE [24]
  Cell kill: 100%
HT-29 [25]
  EC50: 7 µg/mL (≈ 10.7 µM)
MCF7 [26]
  EC50: 28 µg/mL (≈ 42.6 µM)
NRKE [27]
  Cell kill: 100%

## C[C@@]12CCC3[C@](C)(CC[C@]4(C)C(=O)CC[C@@]34C)[C@@]1(C)Cc1nc3c(nc1C2)C[C@@]1(C)[C@@](C)(CCC2[C@]1(C)CC[C@]1(C)C(=O)CC[C@@]21C)C3 (stereo partly specified)
MCF7 [28]
  EC50: 46 µg/mL (≈ 70.4 µM)
A549 [29]
  EC50: 42 µg/mL (≈ 64.3 µM)
HT-29 [30]
  EC50: 94 µg/mL (≈ 144 µM)
SK-MEL-5 [4]
  EC50: > 100 µg/mL
Malme-3M [5]
  EC50: > 100 µg/mL

## C[C@@]12CCC3[C@](C)(CC[C@]4(C)C5(CC[C@@]34C)OCCO5)[C@@]1(C)Cc1nc3c(nc1C2)C[C@@]1(C)[C@@](C)(CCC2[C@]1(C)CC[C@]1(C)C4(CC[C@@]21C)OCCO4)C3 (stereo partly specified)
Malme-3M [31]
  EC50: 31 µg/mL (≈ 41.8 µM)
MCF7 [32]
  EC50: 37 µg/mL (≈ 49.9 µM)
A549 [33]
  EC50: 33 µg/mL (≈ 44.5 µM)
SK-MEL-5 [34]
  EC50: 17 µg/mL (≈ 22.9 µM)
HT-29 [35]
  EC50: 39 µg/mL (≈ 52.6 µM)

## C[C@@H]1[C@]2(O[C@H]3C=C4C5CC[C@@]6(C)Cc7nc8c(nc7C[C@]6(C)[C@@]5(C)C[C@@H](O)[C@]4(C)[C@]31O)C[C@]1(C)CCC3C4=CC[C@@H]5[C@H](C)[C@@]6(OC[C@]45C(=O)C[C@@H]3[C@@]1(C)C8)OC(C)(C)C[C@H]6O)O[C@](C)(CO)C[C@H]2O (stereo partly specified) [CEPHALOSATIN]
P388
  EC50: 0.001 ng/mL (≈ 1.05e-06 µM)
